Measurements: patent US20230382925A1, “MODULATORS OF CYSTIC FIBROSIS TRANSMEMBRANE CONDUCTANCE REGULATOR” (VERTEX PHARMACEUTICALS INCORPORATED, priority 2020, published 2023)
Read-outs that look alike come from different tables or passages of the source.

Target: CFTR (Homo sapiens, UniProt P13569)
Assay: Membrane Potential Dye, Enteroid Assay B
Assay type: cell-based
How it was run: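 Human intestinal enteroid cells exposed to compound 18-24 h at 37 °C, then loaded with methyl oxonol membrane-potential dye plus CaCC blockers. Chloride transport triggered in chloride-free buffer with 10 μM forskolin, 100 μM IBMX, 300 nM Compound III; fluorescence read 15 min, expressed as % of triple-corrector/potentiator combination control.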

Sequence of CFTR (P13569 with tags, fused parts or gaps DEL508-508): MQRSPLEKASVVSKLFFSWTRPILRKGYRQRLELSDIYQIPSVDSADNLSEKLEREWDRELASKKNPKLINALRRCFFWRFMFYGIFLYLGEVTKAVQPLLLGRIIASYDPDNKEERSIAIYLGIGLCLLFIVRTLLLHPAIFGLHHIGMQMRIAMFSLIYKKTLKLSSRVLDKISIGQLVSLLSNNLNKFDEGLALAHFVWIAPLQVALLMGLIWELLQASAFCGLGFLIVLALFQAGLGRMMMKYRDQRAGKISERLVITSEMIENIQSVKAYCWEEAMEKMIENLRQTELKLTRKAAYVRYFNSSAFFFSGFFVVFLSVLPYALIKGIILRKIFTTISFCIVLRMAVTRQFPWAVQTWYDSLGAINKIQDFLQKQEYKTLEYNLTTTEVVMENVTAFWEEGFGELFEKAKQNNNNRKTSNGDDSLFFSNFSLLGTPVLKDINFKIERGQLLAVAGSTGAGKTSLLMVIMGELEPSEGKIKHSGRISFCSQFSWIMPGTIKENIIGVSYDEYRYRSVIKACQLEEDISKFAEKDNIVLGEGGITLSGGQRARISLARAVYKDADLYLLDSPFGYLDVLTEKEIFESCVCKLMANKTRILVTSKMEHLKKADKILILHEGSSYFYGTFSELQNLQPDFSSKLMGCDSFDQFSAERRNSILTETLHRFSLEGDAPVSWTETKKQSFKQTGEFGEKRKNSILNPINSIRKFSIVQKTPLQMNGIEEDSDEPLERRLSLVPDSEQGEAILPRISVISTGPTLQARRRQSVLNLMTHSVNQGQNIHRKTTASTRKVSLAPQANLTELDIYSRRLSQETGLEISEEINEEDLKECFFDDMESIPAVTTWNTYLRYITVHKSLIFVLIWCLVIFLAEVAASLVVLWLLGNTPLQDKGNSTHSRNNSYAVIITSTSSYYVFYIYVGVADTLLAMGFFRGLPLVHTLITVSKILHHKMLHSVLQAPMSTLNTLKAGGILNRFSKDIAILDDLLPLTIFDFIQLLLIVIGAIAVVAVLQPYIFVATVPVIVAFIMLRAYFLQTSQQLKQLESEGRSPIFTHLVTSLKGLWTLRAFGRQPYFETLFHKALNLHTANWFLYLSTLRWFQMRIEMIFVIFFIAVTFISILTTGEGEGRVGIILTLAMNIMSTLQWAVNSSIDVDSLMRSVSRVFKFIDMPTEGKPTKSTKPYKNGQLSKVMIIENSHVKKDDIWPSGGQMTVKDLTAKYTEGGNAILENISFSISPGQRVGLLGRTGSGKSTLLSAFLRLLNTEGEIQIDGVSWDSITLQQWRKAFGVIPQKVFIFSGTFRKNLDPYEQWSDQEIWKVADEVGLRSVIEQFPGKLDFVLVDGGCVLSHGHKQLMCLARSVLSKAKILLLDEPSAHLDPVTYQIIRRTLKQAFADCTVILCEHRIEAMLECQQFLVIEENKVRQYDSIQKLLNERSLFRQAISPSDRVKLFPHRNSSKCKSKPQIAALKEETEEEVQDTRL

Structure (SMILES): Cc1cccc(C)c1-c1cc2nc(n1)NS(=O)(=O)c1cccc(c1)C(=O)N([C@H]1C[C@@H](N3CC(N(C)C)C3)C1)[C@H](CC(C)C)CO2 [Compound 66, (11R)-12-[3-[3-(Dimethylamino)azetidin-1-yl]cyclobutyl]-6-(2,6-dimethylphenyl)-11-isobutyl-2,2-dioxo-9-oxa-2λ^6-thia-3,5,12,19-tetrazatricyclo[12.3.1.14,8]nonadeca-1(18),4(19),5,7,14,16-hexaen-13-one]
- Ent. B Max Activity (%) (Table 9): +++ (+++ is >60%)
- EC50 (Table 9, read-out: Ent. B EC50): < 1 µM

Structure (SMILES): Cc1cccc(C)c1-c1cc2nc(n1)NS(=O)(=O)c1cccc(c1)C(=O)N([C@H]1C[C@@H](N(C)CCCO)C1)[C@H](CC(C)C)CO2 [Compound 67, (11R)-6-(2,6-Dimethylphenyl)-12-[3-[3-hydroxypropyl(methyl)amino]cyclobutyl]-11-isobutyl-2,2-dioxo-9-oxa-2λ^6-thia-3,5,12,19-tetrazatricyclo[12.3.1.14,8]nonadeca-1(18),4(19),5,7,14,16-hexaen-13-one]
- Ent. B Max Activity (%) (Table 9): +++ (+++ is >60%)
- EC50 (Table 9, read-out: Ent. B EC50): < 1 µM

Structure (SMILES): Cc1cccc(C)c1-c1cc2nc(n1)NS(=O)(=O)c1cccc(c1)C(=O)N(C1CC(N(C)[C@H](C)C(F)(F)F)C1)[C@H](CC(C)C)CO2 (stereo partly drawn) [Compound 68, (11R)-6-(2,6-Dimethylphenyl)-11-isobutyl-12-[3-[methyl-[(1R)-2,2,2-trifluoro-1-methyl-ethyl]amino]cyclobutyl]-2,2-dioxo-9-oxa-2λ^6-thia-3,5,12,19-tetrazatricyclo[12.3.1.14,8]nonadeca-1(18),4(19),5,7,14,16-hexaen-13-one]
- Ent. B Max Activity (%) (Table 9): ++ (++ is 30-60%)
- EC50 (Table 9, read-out: Ent. B EC50): < 1 µM

Structure (SMILES): Cc1cccc(C)c1-c1cc2nc(n1)NS(=O)(=O)c1cccc(c1)C(=O)N(C1CC(N(C)CCC(C)(C)C)C1)[C@H](CC(C)C)CO2 (stereo partly drawn) [Compound 69, (11R)-12-[3-[3,3-dimethylbutyl(methyl)amino]cyclobutyl]-6-(2,6-dimethylphenyl)-11-isobutyl-2,2-dioxo-9-oxa-2λ^6-thia-3,5,12,19-tetrazatricyclo[12.3.1.14,8]nonadeca-1(18),4(19),5,7,14,16-hexaen-13-one]
- Ent. B Max Activity (%) (Table 9): +++ (+++ is >60%)
- EC50 (Table 9, read-out: Ent. B EC50): < 1 µM

Structure (SMILES): Cc1cccc(C)c1-c1cc2nc(n1)NS(=O)(=O)c1cccc(c1)C(=O)N(C1CC(NC3CCC(C)(C)CC3)C1)[C@H](CC(C)C)CO2 (stereo partly drawn) [Compound 70, (11R)-12-[3-[(4,4-Dimethylcyclohexyl)amino]cyclobutyl]-6-(2,6-dimethylphenyl)-11-isobutyl-2,2-dioxo-9-oxa-2λ^6-thia-3,5,12,19-tetrazatricyclo[12.3.1.14,8]nonadeca-1(18),4(19),5,7,14,16-hexaen-13-one]
- Ent. B Max Activity (%) (Table 9): +++ (+++ is >60%)
- EC50 (Table 9, read-out: Ent. B EC50): < 1 µM

Structure (SMILES): Cc1cccc(C)c1-c1cc2nc(n1)NS(=O)(=O)c1cccc(c1)C(=O)N(C1CC(NC3CCOCC3)C1)[C@H](CC(C)C)CO2 (stereo partly drawn) [Compound 71, (11R)-6-(2,6-dimethylphenyl)-11-isobutyl-2,2-dioxo-12-[3-(tetrahydropyran-4-ylamino)cyclobutyl]-9-oxa-2λ^6-thia-3,5,12,19-tetrazatricyclo[12.3.1.14,8]nonadeca-1(18),4(19),5,7,14,16-hexaen-13-one]
- Ent. B Max Activity (%) (Table 9): +++ (+++ is >60%)
- EC50 (Table 9, read-out: Ent. B EC50): < 1 µM

Structure (SMILES): Cc1cccc(C)c1-c1cc2nc(n1)NS(=O)(=O)c1cccc(c1)C(=O)N(C1CC(N3CCS(=O)(=O)CC3)C1)[C@H](CC(C)C)CO2 (stereo partly drawn) [Compound 72, (11R)-6-(2,6-dimethylphenyl)-12-[3-(1,1-dioxo-1,4-thiazinan-4-yl)cyclobutyl]-11-isobutyl-2,2-dioxo-9-oxa-2λ^6-thia-3,5,12,19-tetrazatricyclo[12.3.1.14,8]nonadeca-1(18),4(19),5,7,14,16-hexaen-13-one]
- Ent. B Max Activity (%) (Table 9): +++ (+++ is >60%)
- EC50 (Table 9, read-out: Ent. B EC50): < 1 µM

Structure (SMILES): Cc1cccc(C)c1-c1cc2nc(n1)NS(=O)(=O)c1cccc(c1)C(=O)N(C1CC(NC34CC(C3)C4)C1)[C@H](CC(C)C)CO2 (stereo partly drawn) [Compound 73, (11R)-12-[3-(1-Bicyclo[1.1.1]pentanylamino)cyclobutyl]-6-(2,6-dimethylphenyl)-11-isobutyl-2,2-dioxo-9-oxa-2λ^6-thia-3,5,12,19-tetrazatricyclo[12.3.1.14,8]nonadeca-1(18),4(19),5,7,14,16-hexaen-13-one]
- Ent. B Max Activity (%) (Table 9): +++ (+++ is >60%)
- EC50 (Table 9, read-out: Ent. B EC50): < 1 µM

Structure (SMILES): [H][C@]1(N2C(=O)c3cccc(c3)S(=O)(=O)Nc3nc(cc(-c4c(C)cccc4C)n3)OC[C@H]2CC2(C(F)(F)F)CC2)C[C@@]2(C[C@H](NC(=O)OC(C)C)C2)C1 (stereo partly drawn) [Compound 78, Isopropyl ((2S,4s,6S)-6-((R)-1^6-(2,6-dimethylphenyl)-3,3-dioxido-5-oxo-7-((1-(trifluoromethyl)cyclopropyl)methyl)-9-oxa-3-thia-2,6-diaza-1(2,4)-pyrimidina-4(1,3)-benzenacyclononaphane-6-yl)spiro[3.3]heptan-2-yl)carbamate]
- Ent. B Max Activity (%): +++ (+++ is >60%)
- EC50 (read-out: Ent. B EC50): < 1 µM

Structure (SMILES): Cc1cccc(C)c1-c1cc2nc(n1)NS(=O)(=O)c1cccc(c1)C(=O)N([C@H]1C[C@]3(C[C@H](NC(=O)OC(C)C)C3)C1)[C@H](CC1(C(F)(F)F)CC1)CO2 (stereo partly drawn) [Compound 79, Isopropyl ((2R,4r,6R)-6-((R)-1^6-(2,6-dimethylphenyl)-3,3-dioxido-5-oxo-7-((1-(trifluoromethyl)cyclopropyl)methyl)-9-oxa-3-thia-2,6-diaza-1(2,4)-pyrimidina-4(1,3)-benzenacyclononaphane-6-yl)spiro[3.3]heptan-2-yl)carbamate]
- Ent. B Max Activity (%): +++ (+++ is >60%)
- EC50 (read-out: Ent. B EC50): < 1 µM

Structure (SMILES): Cc1cccc(C)c1-c1cc2nc(n1)NS(=O)(=O)c1cccc(c1)C(=O)N([C@H]1C[C@]3(C[C@@H](N)C3)C1)[C@H](CC1(C(F)(F)F)CC1)CO2 (stereo partly drawn) [Compound 80, (R)-6-((2S,4s,6S)-6-Aminospiro[3.3]heptan-2-yl)-1^6-(2,6-dimethylphenyl)-7-((1-(trifluoromethyl)cyclopropyl)methyl)-9-oxa-3-thia-2,6-diaza-1(2,4)-pyrimidina-4(1,3)-benzenacyclononaphan-5-one 3,3-dioxide]
- Ent. B Max Activity (%) (Table 9): +++ (+++ is >60%)
- EC50 (Table 9, read-out: Ent. B EC50): < 1 µM

Structure (SMILES): Cc1cccc(C)c1-c1cc2nc(n1)NS(=O)(=O)c1cccc(c1)C(=O)N([C@H]1C[C@@]3(C[C@@H](N)C3)C1)[C@H](CC1(C(F)(F)F)CC1)CO2 (stereo partly drawn) [Compound 81, (R)-6-((2R,4r,6R)-6-Aminospiro[3.3]heptan-2-yl)-1^6-(2,6-dimethylphenyl)-7-((1-(trifluoromethyl)cyclopropyl)methyl)-9-oxa-3-thia-2,6-diaza-1(2,4)-pyrimidina-4(1,3)-benzenacyclononaphan-5-one 3,3-dioxide]
- Ent. B Max Activity (%) (Table 9): +++ (+++ is >60%)
- EC50 (Table 9, read-out: Ent. B EC50): < 1 µM

Structure (SMILES): COCCN(C)[C@H]1C[C@]2(C1)C[C@H](N1C(=O)c3cccc(c3)S(=O)(=O)Nc3nc(cc(-c4c(C)cccc4C)n3)OC[C@H]1CC1(C(F)(F)F)CC1)C2 (stereo partly drawn) [Compound 82, (R)-1^6-(2,6-Dimethylphenyl)-6-((2S,4s,6S)-6-((2-methoxyethyl)(methyl)amino)spiro[3.3]heptan-2-yl)-7-((1-(trifluoromethyl)cyclopropyl)methyl)-9-oxa-3-thia-2,6-diaza-1(2,4)-pyrimidina-4(1,3)-benzenacyclononaphan-5-one 3,3-dioxide]
- Ent. B Max Activity (%) (Table 9): +++ (+++ is >60%)
- EC50 (Table 9, read-out: Ent. B EC50): < 1 µM

Structure (SMILES): COCCN(C)[C@H]1C[C@@]2(C1)C[C@H](N1C(=O)c3cccc(c3)S(=O)(=O)Nc3nc(cc(-c4c(C)cccc4C)n3)OC[C@H]1CC1(C(F)(F)F)CC1)C2 (stereo partly drawn) [Compound 83, (R)-16-(2,6-Dimethylphenyl)-6-((2R,4r,6R)-6-((2-methoxyethyl)(methyl)amino)spiro[3.3]heptan-2-yl)-7-((1-(trifluoromethyl)cyclopropyl)methyl)-9-oxa-3-thia-2,6-diaza-1(2,4)-pyrimidina-4(1,3)-benzenacyclononaphan-5-one 3,3-dioxide]
- Ent. B Max Activity (%) (Table 9): +++ (+++ is >60%)
- EC50 (Table 9, read-out: Ent. B EC50): < 1 µM

Structure (SMILES): CC(=O)N[C@H]1C[C@@]2(C1)C[C@H](N1C(=O)c3cccc(c3)S(=O)(=O)Nc3nc(cc(-c4c(C)cccc4C)n3)OC[C@H]1CC1(C(F)(F)F)CC1)C2 (stereo partly drawn) [Compound 85, N-((2R,4r,6R)-6-((R)-1^6-(2,6-Dimethylphenyl)-3,3-dioxido-5-oxo-7-((1-(trifluoromethyl)cyclopropyl)methyl)-9-oxa-3-thia-2,6-diaza-1(2,4)-pyrimidina-4(1,3)-benzenacyclononaphane-6-yl)spiro[3.3]heptan-2-yl)acetamide]
- Ent. B Max Activity (%) (Table 9): +++ (+++ is >60%)
- EC50 (Table 9, read-out: Ent. B EC50): < 1 µM

Structure (SMILES): COC(=O)NC1CC2(C1)CC(N1C(=O)c3cccc(c3)S(=O)(=O)Nc3nc(cc(-c4c(C)cccc4C)n3)OC[C@H]1CC(C)(C)C)C2 (stereo partly drawn) [Compound 88, Methyl ((2S,4s,6S)-6-((R)-1^6-(2,6-dimethylphenyl)-7-neopentyl-3,3-dioxido-5-oxo-9-oxa-3-thia-2,6-diaza-1(2,4)-pyrimidina-4(1,3)-benzenacyclononaphane-6-yl)spiro[3.3]heptan-2-yl)carbamate]
- Ent. B Max Activity (%) (Table 9): +++ (+++ is >60%)
- EC50 (Table 9, read-out: Ent. B EC50): < 1 µM

Structure (SMILES): Cc1cccc(C)c1-c1cc2nc(n1)NS(=O)(=O)c1cccc(c1)C(=O)N(C1CC3(CC(NC(=O)OC(C)C)C3)C1)[C@H](CC(C)(C)C)CO2 (stereo partly drawn) [Compound 92, Isopropyl ((2S,4s,6S)-6-((R)-1^6-(2,6-dimethylphenyl)-7-neopentyl-3,3-dioxido-5-oxo-9-oxa-3-thia-2,6-diaza-1(2,4)-pyrimidina-4(1,3)-benzenacyclononaphane-6-yl)spiro[3.3]heptan-2-yl)carbamate]
- Ent. B Max Activity (%) (Table 9): +++ (+++ is >60%)
- EC50 (Table 9, read-out: Ent. B EC50): < 1 µM

Structure (SMILES): COC(=O)N(C)C1CC2(C1)CC(N1C(=O)c3cccc(c3)S(=O)(=O)Nc3nc(cc(-c4c(C)cccc4C)n3)OC[C@H]1CC(C)(C)C)C2 (stereo partly drawn) [Compound 94, Methyl ((2R,4r,6R)-6-((R)-1^6-(2,6-dimethylphenyl)-7-neopentyl-3,3-dioxido-5-oxo-9-oxa-3-thia-2,6-diaza-1(2,4)-pyrimidina-4(1,3)-benzenacyclononaphane-6-yl)spiro[3.3]heptan-2-yl)(methyl)carbamate]
- Ent. B Max Activity (%) (Table 10): ++ (++ is 30-60%)
- EC50 (Table 10, read-out: Ent. B EC50): < 1 µM
